According to patent publication US10206399B2, “Herbicidal composition comprising uracil compound as active ingredient” (Dongbu Farm Hannong Co., Ltd., priority 2012, dated 2019):
Where two headings read alike, the source gives them in different places.

Assays:
[1] = system: Monochoria vaginalis; assay: Paddy field farming herbicidal composition test, plant mortality; type: in vivo
Text: (§1) X is % damage by uracil compound (a) of formula 1 at the rate of application of p kg/ha; Y is % damage by conventional herbicidal compound (b) at the rate of application of q kg/ha; and E is the expected damage caused by compounds (a) and (b) at a rate of application of p and q kg/ha.
(§2) The expected activity for a given combination of two herbicides can be calculated using equation 1 above.

[2] = system: Echinochloa crus; assay: as above; type: in vivo
Text: as §1, §2

[3] = system: Digitaria sanguinalis; details: Digitaria sanguinalis
Text: as §1, §2

[4] = system: Echinochloa crus; details: Echinochloa crus
Text: as §1, §2

[5] = system: Xanthium spinosum; assay: whole plant or invertebrate
Text: as §1, §2

[6] = system: Abutilon theophrasti; details: 20 g/ha; Abutilon theophrasti
Text: as §1, §2

[7] = system: Aeschynomene indica; assay: whole plant or invertebrate
Text: as §1, §2

[8] = system: Abutilon theophrasti; assay: whole plant or invertebrate
Text: as §1, §2

[9] = system: Echinochloa crus; assay: Dry field farming herbicidal composition test, plant mortality; type: in vivo
Text: as §1, §2

[10] = system: Abutilon theophrasti; assay: as above; type: in vivo
Text: as §1, §2

[11] = system: corn
[12] = system: Aeschynomene indica; assay: Dry field farming herbicidal composition test, plant mortality; type: in vivo
Text: as §1, §2

[13] = system: Digitaria sanguinalis; assay: as above; type: in vivo
Text: as §1, §2

[14] = Pontederia vaginalis, read-out: Monochoria vaginalis mortality (measured value)
[15] = Echinochloa, read-out: Echinochloa crus mortality, measured value
[16] = read-out: plant mortality, measured value, 20 g/ha
[17] = read-out: plant mortality, measured value, 40 g/ha
[18] = read-out: plant mortality, measured value, 80 g/ha
[19] = Abutilon theophrasti, read-out: Abutilon theophrasti mortality, measured value
[20] = Aeschynomene indica, read-out: Aeschynomene indica mortality, measured value
[21] = Digitaria sanguinalis, read-out: Digitaria sanguinalis mortality, measured value

SMILES: CCN(C(=O)SCc1ccccc1)C(C)C(C)C (stereo not drawn) [Esprocarb]
- pest or weed control at 500 g/ha [1, 14]: 30%
- pest or weed control at 500 g/ha [2, 15]: 20%

SMILES: C=CCOC(=O)C(C)(C)OC(=O)c1cc(-n2c(=O)cc(C(F)(F)F)n(C)c2=O)ccc1Cl [Butafenacil]
- plant mortality, measured value ([3]; 4 g/ha): 0
- plant mortality, measured value ([3]; 20 g/ha): 12
- plant mortality, measured value ([3]; 40 g/ha): 40
- plant mortality, measured value ([3]; 80 g/ha): 70
- plant mortality, measured value ([4]; 4 g/ha): 0
- plant mortality, measured value ([4]; 8 g/ha): 0
- plant mortality, measured value ([4]; 20 g/ha): 12
- plant mortality, measured value ([4]; 40 g/ha): 30
- plant mortality, measured value ([4]; 80 g/ha): 53
- pest or weed control at 4 g/ha ([5]; read-out: plant mortality, measured value, 4 g/ha): 15%
- pest or weed control at 16 g/ha ([5]; read-out: plant mortality, measured value, 16 g/ha): 54%
- pest or weed control at 20 g/ha [5, 16]: 42%
- pest or weed control at 40 g/ha [5, 17]: 90%
- pest or weed control at 80 g/ha [5, 18]: 100%
- plant mortality, measured value [6]: 55
- pest or weed control at 8 g/ha ([7]; read-out: plant mortality, measured value, 8 g/ha): 45%
- pest or weed control at 20 g/ha [7, 16]: 51%
- pest or weed control at 40 g/ha [7, 17]: 99%
- pest or weed control at 80 g/ha [7, 18]: 100%
- pest or weed control at 20 g/ha [8, 16]: 55%
- pest or weed control at 40 g/ha [8, 17]: 94%
- pest or weed control at 80 g/ha [8, 18]: 100%

SMILES: COP(=S)(OC)SCC(=O)N(c1ccc(Cl)cc1)C(C)(C)C [Anilofos]
- pest or weed control at 75 g/ha [1, 14]: 0%
- pest or weed control at 75 g/ha [2, 15]: 50%

SMILES: NC1=C(Cl)C(=O)c2ccccc2C1=O [Quinoclamine]
- Monochoria vaginalis mortality (measured value) ([1]; 450 g/ha): 0
- Echinochloa crus mortality, measured value ([2]; 450 g/ha): 0

SMILES: CC(C)(NC(=O)C(Br)C(C)(C)C)c1ccccc1 (stereo not drawn) [Bromobutide]
- pest or weed control at 225 g/ha ([1]; Pontederia vaginalis, 225 g/ha, read-out: Monochoria vaginalis mortality (measured value)): 50%
- pest or weed control at 225 g/ha ([2]; Echinochloa, 225 g/ha, read-out: Echinochloa crus mortality (measured value)): 0%

SMILES: CCOc1ccccc1OS(=O)(=O)NC(=O)Nc1nc(OC)cc(OC)n1 [Ethoxysulfuron]
- pest or weed control at 15 g/ha [1, 14]: 20%
- pest or weed control at 15 g/ha [2, 15]: 10%

SMILES: COc1nc(OC)nc(C(=O)c2cccc(F)c2N(C)S(=O)(=O)C(F)F)n1 [Triafamone]
- Monochoria vaginalis mortality (measured value) ([1]; 12.5 g/ha): 10
- Echinochloa crus mortality, measured value ([2]; 12.5 g/ha): 50

SMILES: CC1=C(c2ccccc2)C(=O)N(C(C)(C)c2cc(Cl)cc(Cl)c2)CO1 [Oxaziclomefone]
- pest or weed control at 12.5 g/ha ([1]; Pontederia vaginalis, 12.5 g/ha, read-out: Monochoria vaginalis mortality (measured value)): 0%
- pest or weed control at 12.5 g/ha ([2]; Echinochloa, 12.5 g/ha, read-out: Echinochloa crus mortality (measured value)): 30%

SMILES: COc1cc(OC)nc(Sc2cccc3c2C(=O)OC3C)n1 (stereo not drawn) [Pyritlalid]
- Monochoria vaginalis mortality (measured value) ([1]; 37.5 g/ha): 0
- Echinochloa crus mortality, measured value ([2]; 37.5 g/ha): 30

SMILES: COc1cc(OC)nc(NC(=O)NS(=O)(=O)Nc2ccccc2C(=O)C2CC2)n1 [Cyclosulfamuron]
- pest or weed control at 11 g/ha ([1]; Pontederia vaginalis, 11 g/ha, read-out: Monochoria vaginalis mortality (measured value)): 50%
- pest or weed control at 11 g/ha ([2]; Echinochloa, 11 g/ha, read-out: Echinochloa crus mortality (measured value)): 30%

SMILES: CS(=O)(=O)c1ccc(C(=O)C2=C(Sc3ccccc3)C3CCC(C3)C2=O)c(Cl)c1 (stereo not drawn) [Benzobicyclon]
- Monochoria vaginalis mortality (measured value) ([1]; 50 g/ha): 30
- Echinochloa crus mortality, measured value ([2]; 50 g/ha): 0

SMILES: CN(C(=O)COc1nc2ccccc2s1)c1ccccc1 [Mefenacet]
- pest or weed control at 200 g/ha [1, 14]: 30%
- pest or weed control at 200 g/ha [2, 15]: 30%

SMILES: COc1cc(OC)nc(NC(=O)NS(=O)(=O)c2c(C3=NOCC(C)O3)c(Cl)nn2C)n1 (stereo not drawn) [Metazosulfuron]
- Monochoria vaginalis mortality (measured value) ([1]; 25 g/ha): 40
- Echinochloa crus mortality, measured value ([2]; 25 g/ha): 35

SMILES: CCC1(CC2(c3cccc(Cl)c3)CO2)C(=O)c2ccccc2C1=O (stereo not drawn) [Indanofan]
- pest or weed control at 37.5 g/ha [1, 14]: 0%
- pest or weed control at 37.5 g/ha [2, 15]: 25%

SMILES: COc1cccc(N(C)C(=S)Oc2cccc(C(C)(C)C)c2)n1 [Pyributicarb]
- pest or weed control at 150 g/ha ([1]; Pontederia vaginalis, 150 g/ha, read-out: Monochoria vaginalis mortality (measured value)): 20%
- pest or weed control at 150 g/ha ([2]; Echinochloa, 150 g/ha, read-out: Echinochloa crus mortality (measured value)): 20%

SMILES: CCN(C(=O)n1nnn(-c2ccccc2Cl)c1=O)C1CCCCC1 [Fentrazamide]
- pest or weed control at 50 g/ha [1, 14]: 30%
- pest or weed control at 50 g/ha [2, 15]: 20%

SMILES: CCN(CC)C(=O)n1cnc(S(=O)(=O)c2c(C)cc(C)cc2C)n1 [Cafenstrole]
- pest or weed control at 50 g/ha [1, 14]: 30%
- pest or weed control at 50 g/ha [2, 15]: 20%

SMILES: COc1ncc(F)c2nc(S(=O)(=O)Nc3c(F)cccc3F)nn12 [Florasulam]
- Echinochloa crus mortality, measured value ([9]; 1 g/ha): 0%
- Echinochloa crus mortality, measured value ([9]; 2 g/ha): 0%
- Echinochloa crus mortality, measured value ([9]; 4 g/ha): 0%
- Abutilon theophrasti mortality, measured value ([10]; 1 g/ha): 12
- Abutilon theophrasti mortality, measured value ([10]; 2 g/ha): 23
- Abutilon theophrasti mortality, measured value ([10]; 4 g/ha): 54
- Corn mortality, measured value ([11]; 1 g/ha): 0
- Corn mortality, measured value ([11]; 2 g/ha): 0
- Corn mortality, measured value ([11]; 4 g/ha): 0
- Aeschynomene indica mortality, measured value ([12]; 1 g/ha): 8%
- Aeschynomene indica mortality, measured value ([12]; 2 g/ha): 18%
- Aeschynomene indica mortality, measured value ([12]; 4 g/ha): 46%
- Digitaria sanguinalis mortality, measured value ([13]; 1 g/ha): 0%
- Digitaria sanguinalis mortality, measured value ([13]; 2 g/ha): 0%
- Digitaria sanguinalis mortality, measured value ([13]; 4 g/ha): 0%

SMILES: COCc1cccc(C(O)c2nc(OC)cc(OC)n2)c1NS(=O)(=O)C(F)F (stereo not drawn) [Pyrimisulfan]
- Monochoria vaginalis mortality (measured value) ([1]; 16.5 g/ha): 50
- Echinochloa crus mortality, measured value ([2]; 16.5 g/ha): 40

SMILES: COc1cc(OC)nc(NC(=O)NS(=O)(=O)c2c(Cl)nc3ccccn23)n1 [Imazosulfuron]
- pest or weed control at 18 g/ha ([1]; Pontederia vaginalis, 18 g/ha, read-out: Monochoria vaginalis mortality (measured value)): 40%
- pest or weed control at 18 g/ha ([2]; Echinochloa, 18 g/ha, read-out: Echinochloa crus mortality (measured value)): 20%

SMILES: CON=C(C)c1cccc(Oc2nc(OC)cc(OC)n2)c1C(=O)O [Pyriminobac]
- Monochoria vaginalis mortality (measured value) ([1]; 11 g/ha): 0
- Echinochloa crus mortality, measured value ([2]; 11 g/ha): 50

SMILES: COCCOc1ccccc1S(=O)(=O)NC(=O)N=c1nc(OC)[nH]c(OC)n1 [Cinosulfuron]
- pest or weed control at 10 g/ha [1, 14]: 30%
- pest or weed control at 10 g/ha [2, 15]: 20%

SMILES: CCCc1ccc2nc(Cl)c(S(=O)(=O)NC(=O)Nc3nc(OC)cc(OC)n3)n2n1 [Propyrisulfuron]
- Monochoria vaginalis mortality (measured value) ([1]; 18 g/ha): 45
- Echinochloa crus mortality, measured value ([2]; 18 g/ha): 45

SMILES: COc1cc(OC)nc(NC(=O)NS(=O)(=O)Nc2ccccc2C(=O)N(C)C)n1 [Orthosulfamuron]
- Monochoria vaginalis mortality (measured value) ([1]; 17.5 g/ha): 40
- Echinochloa crus mortality, measured value ([2]; 17.5 g/ha): 10

SMILES: COc1cc(OC)nc(NC(=O)NS(=O)(=O)c2c(-c3nnn(C)n3)cnn2C)n1 [Azimsulfuron]
- pest or weed control at 5 g/ha ([1]; Pontederia vaginalis, 5 g/ha, read-out: Monochoria vaginalis mortality (measured value)): 50%
- pest or weed control at 5 g/ha ([2]; Echinochloa, 5 g/ha, read-out: Echinochloa crus mortality (measured value)): 30%

SMILES: COc1cc(OC)nc(NC(=O)NS(=O)(=O)c2c(C(=O)O)c(Cl)nn2C)n1 [Halosulfuron]
- pest or weed control at 11 g/ha [1, 14]: 30%
- pest or weed control at 11 g/ha [2, 15]: 30%

SMILES: Cc1nn(-c2cc(NS(C)(=O)=O)c(Cl)cc2Cl)c(=O)n1C(F)F [Sulfentrazone]
- pest or weed control at 75 g/ha [9, 15]: 0%
- pest or weed control at 150 g/ha [9, 15]: 5%
- pest or weed control at 300 g/ha [9, 15]: 20%
- pest or weed control at 75 g/ha [10, 19]: 12%
- pest or weed control at 150 g/ha [10, 19]: 25%
- pest or weed control at 300 g/ha [10, 19]: 56%
- Corn mortality, measured value ([11]; 75 g/ha): 0
- Corn mortality, measured value ([11]; 150 g/ha): 0
- Corn mortality, measured value ([11]; 300 g/ha): 1
- pest or weed control at 75 g/ha [12, 20]: 7%
- pest or weed control at 150 g/ha [12, 20]: 25%
- pest or weed control at 300 g/ha [12, 20]: 53%
- pest or weed control at 75 g/ha [13, 21]: 0%
- pest or weed control at 150 g/ha [13, 21]: 10%
- pest or weed control at 300 g/ha [13, 21]: 28%

SMILES: CCSC(=O)N1CCCCCC1 [molinate]
- pest or weed control at 500 g/ha [1, 14]: 0%
- pest or weed control at 500 g/ha [2, 15]: 50%
